Patent US20070219190A1, “Heterocyclic NF-kB Inhibitors” (4SC AG, priority 2006, published 2007)

System: A549-NF-κB-SEAP reporter cells
Assay: NF-κB inflammation assay (PRINCESS NINA Instant Assay, SEAP reporter)
Assay type: cell-based
Settings: stimulation with 2 ng/ml TNF-α; test concentration for the class not stated
From the text: Inhibition of NF-κB-Induced Inflammation:
For the determination of anti-inflammatory activity of the compounds the PRINCESS® NINA Instant Assay from Cell Culture Service GmbH was used. This assay is based on recombinant A549-NF-κB-SEAP reporter cells preseeded in 96-well flat bottom plates. As the transfected reporter gene for SEAP (secreted embryonic alkaline phosphatase) is under transcriptional control of a NF-κB-responsive element, the expression of this reporter is activated upon stimulation with TNF-α. SEAP secretion into the culture supernatant can be detected by the chemiluminescent substrate CSPD®. Test compounds that inhibit the NF-κB activation show reduced SEAP activity and reduced luminescent readout.
Following 18 h of reactivation at 37° C., 5% CO2 and 90% relative humidity, the cells were incubated with 0.01 up to 100 μM of test compound for 4.5 h before stimulation with 2 ng/ml TNF-α. After stimulation with TNF-α for 22 h endogenous phosphatases were inactivated and CSPD® substrate was supplied for 40 min. SEAP activity then was quantified by measuring luminescence as relative light units (RLU) using a Tecan Ultra reader. Each data point was recorded in quadruplicates and EC50 values were calculated via fitting function and the Microsoft Excel Solver.

Compound: COc1nc(OC)nc(N2CCC(c3nc(C(=O)N4CCC(n5cnc6ccccc65)CC4)cs3)CC2)n1 [Cp. 6, (4-Benzoimidazol-1-yl-piperidin-1-yl)-{2-[1-(4,6-dimethoxy-[1,3,5]triazin-2-yl)-piperidin-4-yl]-thiazol-4-yl}-methanone]
- Biological activity (NF-κB inflammation assay, inhibition): ++ (“++” means 80-90%)

Compound: COc1nc(OC)nc(N2CCC(c3nc(C(=O)N4CCN(c5nsc6ccccc56)CC4)cs3)CC2)n1 [Cp. 5, (4-Benzo[d]isothiazol-3-yl-piperazin-1-yl)-{2-[1-(4,6-dimethoxy-[1,3,5]triazin-2-yl)-piperidin-4-yl]-thiazol-4-yl}-methanone]
- Biological activity (NF-κB inflammation assay, inhibition): ++ (“++” means 80-90%)

Compound: N#Cc1ccc(CN2CCC(c3nc(C(=O)N4CCN(c5nsc6ccccc56)CC4)cs3)CC2)cc1 [Cp. 2, 4-{4-[4-(4-Benzo[d]isothiazol-3-yl-piperazine-1-carbonyl)-thiazol-2-yl]-piperidin-1-ylmethyl}-benzonitrile]
- Biological activity (NF-κB inflammation assay, inhibition): ++ (“++” means 80-90%)

Compound: COc1cc(N2CCC(c3nc(C(=O)N4CCN(c5nsc6ccccc56)CC4)cs3)CC2)nc(OC)n1 [Cp. 7, (4-Benzo[d]isothiazol-3-yl-piperazin-1-yl)-{2-[1-(2,6-dimethoxy-pyrimidin-4-yl)-piperidin-4-yl]-thiazol-4-yl}-methanone]
- Biological activity (NF-κB inflammation assay, inhibition): ++ (“++” means 80-90%)

Compound: N#Cc1ccc(CN2CCC(c3nc(C(=O)N4CCC(n5nnc6cc(C(F)(F)F)ccc65)CC4)cs3)CC2)cc1 [Cp. 1, 4-(4-{4-[4-(5-Trifluoromethyl-benzotriazol-1-yl)-piperidine-1-carbonyl]-thiazol-2-yl}-piperidin-1-yl-methyl)-benzonitrile]
- Biological activity (NF-κB inflammation assay, inhibition): ++ (“++” means 80-90%)

Compound: O=C(c1csc(C2CCN(c3ncnc4ccsc34)CC2)n1)N1CCN(c2nsc3ccccc23)CC1 [Cp. 8, (4-Benzo[d]isothiazol-3-yl-piperazin-1-yl)-[2-(1-thieno[3,2-d]pyrimidin-4-yl-piperidin-4-yl)-thiazol-4-yl]-methanone]
- Biological activity (NF-κB inflammation assay, inhibition): +++ (“+++” stands for 90-100% inhibition)

Compound: N#Cc1ccc(CN2CCC(c3nc(C(=O)N4CCC(n5cnc6ccccc65)CC4)cs3)CC2)cc1 [Cp. 3, 4-{4-[4-(4-Benzoimidazol-1-yl-piperidine-1-carbonyl)-thiazol-2-yl]-piperidin-1-ylmethyl}-benzonitrile]
- Biological activity (NF-κB inflammation assay, inhibition): ++ (“++” means 80-90%)
